Measurements: ChEMBL document CHEMBL4138105, “LL-37-derived short antimicrobial peptide KR-12-a5 and its d-amino acid substituted analogs with cell selectivity, anti-biofilm activity, synergistic effect with conventional antibiotics, and anti-inflammatory activity” (Eur J Med Chem, 2017)
≈ marks a conversion by molar mass, not a printed value. Calls of active or inactive are those of the source. The calls are words filed in the database; no cut-off is given here.

Columns and labels:
Enterococcus faecium [1] = assay: Potency index, ratio of LL-37 MIC to compound MIC for Vancomycin-resistant Enterococcus faecium ATCC 51559; assay type: functional
Staphylococcus aureus [2] = assay: Antibacterial activity against Staphylococcus aureus KCTC 1621 assessed as cytoplasmic membrane depolarization at 2 times MIC by disC3-5 dye based fluorescence assay; assay type: functional, organism-based
Pseudomonas aeruginosa [3] = assay: Antibacterial activity against multidrug-resistant Pseudomonas aeruginosa CCARM 2109 after 24 hrs; assay type: functional; details: CCARM 2109, 24 h
RAW264.7 [4] = assay: Anti-inflammatory activity in mouse RAW264.7 cells assessed as reduction in LPS-induced iNOS mRNA expression at 5 uM after 6 hrs by RT-PCR analysis; assay type: functional, cell-based
Staphylococcus aureus [5] = assay: Antibacterial activity against methicillin resistant Staphylococcus aureus CCARM 3089 after 24 hrs; assay type: functional; details: CCARM 3089, 24 h
Staphylococcus aureus [6] = assay: Antibacterial activity against Staphylococcus aureus KCTC 1621 in presence of 20% human serum after 24 hrs; assay type: functional; details: KCTC 1621, 24 h
[7] = Binding affinity to EYPC/cholesterol small unilamellar vesicles assessed as intrinsic tryptophan acrylamide quenching constant by fluorescence assay (reference value: 5.95 to 7.56 /M)
Pseudomonas aeruginosa [8] = assay: Potency index, ratio of LL-37 MBIC90 to compound MBIC90 for antibiofilm activity against multidrug-resistant Pseudomonas aeruginosa CCARM 2095; assay type: functional
Staphylococcus aureus [9] = assay: Antibacterial activity against Staphylococcus aureus KCTC 1621 in presence of 2.5 mM CaCl2 after 24 hrs; assay type: functional; details: KCTC 1621, 24 h
Pseudomonas aeruginosa [10] = assay: Synergistic antibacterial activity against multidrug-resistant Pseudomonas aeruginosa CCARM 2095 after 72 hrs in presence of ciprofloxacin by chequerboard assay; assay type: functional
Enterococcus faecium [11] = assay: Potency index, ratio of melittin MIC to compound MIC for Vancomycin-resistant Enterococcus faecium ATCC 51559; assay type: functional
[12] = Therapeutic index, ratio of MHC10 for human RBC to MIC for Escherichia coli KCTC 1682; assay type: toxicity; details: red blood cells (RBC), pooled result: one value given for 6 cell lines, strains, targets or settings, read-out: TI
Staphylococcus aureus [13] = assay: Potency index, ratio of melittin MIC to compound MIC for methicillin resistant Staphylococcus aureus CCARM 3095; assay type: functional
Staphylococcus aureus [14] = assay: Potency index, ratio of LL-37 MIC to compound MIC for methicillin resistant Staphylococcus aureus CCARM 3090; assay type: functional
Salmonella typhimurium = assay: Antibacterial activity against Salmonella typhimurium KCTC 11926 after 24 hrs; assay type: functional, Salmonella enterica subsp. enterica serovar Typhimurium; details: Salmonella enterica, KCTC 11926, 24 h
Staphylococcus aureus [15] = assay: Antibacterial activity against methicillin resistant Staphylococcus aureus CCARM 3095 after 24 hrs; assay type: functional; details: CCARM 3095, 24 h
NIH3T3 = assay: Cytotoxicity against mouse NIH/3T3 cells up to 128 uM after 48 hrs by MTT assay; assay type: cell-based; details: nih3t3, 48 h
Escherichia coli [16] = assay: Antibacterial activity against Escherichia coli KCTC 1682 in presence of 1 mM MgCl2 after 24 hrs; assay type: functional; details: KCTC 1682, 24 h
Pseudomonas aeruginosa [17] = assay: Potency index, ratio of melittin MIC to compound MIC for multidrug-resistant Pseudomonas aeruginosa CCARM 2095; assay type: functional
RAW264.7 [18] = assay: Cytotoxicity against mouse RAW264.7 cells up to 128 uM after 48 hrs by MTT assay; assay type: cell-based; details: raw264.7, 48 h
RAW264.7 [19] = assay: Anti-inflammatory activity in mouse RAW264.7 cells assessed as reduction in LPS-induced IL-6 mRNA expression at 10 uM after 3 hrs by RT-PCR analysis; assay type: functional, cell-based
Bacillus subtilis = assay: Antibacterial activity against Bacillus subtilis KCTC 3068 after 24 hrs; assay type: functional; details: KCTC 3068, 24 h
Staphylococcus aureus [20] = assay: Potency index, ratio of melittin MIC to compound MIC for methicillin resistant Staphylococcus aureus CCARM 3090; assay type: functional
RAW264.7 [21] = assay: Anti-inflammatory activity in mouse RAW264.7 cells assessed as reduction in LPS-induced MCP-1 mRNA expression at 10 uM after 3 hrs by RT-PCR analysis; assay type: functional, cell-based
RAW264.7 [22] = assay: Anti-inflammatory activity in mouse RAW264.7 cells assessed as reduction in LPS-induced TNF-alpha production at 10 to 20 uM preincubated for 1 hr followed by LPS stimulation measured after 6 hrs by ELISA; assay type: functional, cell-based
Escherichia coli [23] = assay: Antibacterial activity against Escherichia coli KCTC 1682 in presence of 20% human serum after 24 hrs; assay type: functional; details: KCTC 1682, 24 h
Staphylococcus aureus [24] = assay: Antibacterial activity against Staphylococcus aureus KCTC 1621 in presence of 6 uM NH4Cl after 24 hrs; assay type: functional; details: KCTC 1621, 24 h
Staphylococcus aureus [25] = assay: Antibacterial activity against methicillin resistant Staphylococcus aureus CCARM 3090 after 24 hrs; assay type: functional; details: CCARM 3090, 24 h
Escherichia coli [26] = assay: Antibacterial activity against Escherichia coli KCTC 1682 in presence of 6 uM NH4Cl after 24 hrs; assay type: functional; details: KCTC 1682, 24 h
Staphylococcus aureus [27] = assay: Potency index, ratio of LL-37 MIC to compound MIC for methicillin resistant Staphylococcus aureus CCARM 3095; assay type: functional
[28] = tested on: Staphylococcus epidermidis; assay: Antibacterial activity against Staphylococcus epidermidis KCTC 1917 after 24 hrs; assay type: functional; details: KCTC 1917, 24 h
Pseudomonas aeruginosa [29] = assay: Potency index, ratio of LL-37 MIC to compound MIC for multidrug-resistant Pseudomonas aeruginosa CCARM 2109; assay type: functional
Erythrocyte = assay: Hemolytic activity in human RBC after 1 hr; assay type: ADME, cell-based
Staphylococcus aureus [30] = assay: Antibacterial activity against Staphylococcus aureus KCTC 1621 in presence of 150 mM NaCl after 24 hrs; assay type: functional; details: KCTC 1621, 24 h
Pseudomonas aeruginosa [31] = assay: Synergistic antibacterial activity against multidrug-resistant Pseudomonas aeruginosa CCARM 2095 after 72 hrs in presence of oxacillin by chequerboard assay; assay type: functional
Pseudomonas aeruginosa [32] = assay: Potency index, ratio of melittin MIC to compound MIC for multidrug-resistant Pseudomonas aeruginosa CCARM 2109; assay type: functional
Lipid bilayer = assay: Binding affinity to EYPE/EYPG small unilamellar vesicles assessed as intrinsic tryptophan acrylamide quenching constant by fluorescence assay (reference value: 5.95 to 7.56 /M)
Escherichia coli [33] = assay: Antibacterial activity against Escherichia coli KCTC 1682 in presence of 2.5 mM CaCl2 after 24 hrs; assay type: functional; details: KCTC 1682, 24 h
Pseudomonas aeruginosa [34] = assay: Antibacterial activity against multidrug-resistant Pseudomonas aeruginosa CCARM 2095 after 24 hrs; assay type: functional; details: CCARM 2095, 24 h
Staphylococcus aureus [35] = assay: Antibacterial activity against Staphylococcus aureus KCTC 1621 in presence of 1 mM MgCl2 after 24 hrs; assay type: functional; details: KCTC 1621, 24 h
Escherichia coli [36] = assay: Antibacterial activity against Escherichia coli KCTC 1682 after 24 hrs; assay type: functional; details: KCTC 1682, 24 h
Staphylococcus aureus [37] = assay: Ratio of MIC for Staphylococcus aureus KCTC 1621 in presence of 20% human serum to MIC for Escherichia coli KCTC 1682 in presence of 20% human serum; assay type: functional
Pseudomonas aeruginosa [38] = assay: Potency index, ratio of LL-37 MIC to compound MIC for multidrug-resistant Pseudomonas aeruginosa CCARM 2095; assay type: functional
Pseudomonas aeruginosa [39] = assay: Antibiofilm activity against multidrug-resistant Pseudomonas aeruginosa CCARM 2095 after 24 hrs by crystal violet staining based assay; assay type: functional
Staphylococcus aureus [40] = assay: Potency index, ratio of melittin MIC to compound MIC for methicillin resistant Staphylococcus aureus CCARM 3089; assay type: functional

CC[C@H](C)[C@H](NC(=O)[C@H](CC(C)C)NC(=O)[C@H](CCCCN)NC(=O)[C@@H](NC(=O)[C@@H](NC(=O)[C@H](CCCNC(=N)N)NC(=O)[C@@H](N)CCCCN)[C@@H](C)CC)C(C)C)C(=O)N[C@@H](CC(C)C)C(=O)N[C@@H](CCCCN)C(=O)N[C@@H](Cc1c[nH]c2ccccc12)C(=O)N[C@@H](CC(C)C)C(=O)N[C@@H](CCCNC(=N)N)C(N)=O
Ratio (Enterococcus faecium [1]): 2 - 4 | Activity (Staphylococcus aureus [2]): Active | MIC (Pseudomonas aeruginosa [3]): 8 µM (≈ 12.5 µg/mL) | Activity (RAW264.7 [4]): Active | MIC (Staphylococcus aureus [5]): 4 µM (≈ 6.26 µg/mL) | MIC (Staphylococcus aureus [6]): 8 µM | KSV [7]: 1.66 M⁻¹ | fold change (FC) (Pseudomonas aeruginosa [8]): 4 - 8 | MIC (Staphylococcus aureus [9]): 2 µM | fractional inhibitory concentration index (FICI) (Pseudomonas aeruginosa [10]): 0.3125 | Ratio (Enterococcus faecium [11]): 2 - 4 | selectivity ratio [12]: 4.4 | Ratio (Staphylococcus aureus [13]): 2 - 4 | Ratio (Staphylococcus aureus [14]): 2 - 4 | MIC (Salmonella typhimurium): 2 µM (≈ 3.13 µg/mL) | MIC (Staphylococcus aureus [15]): 4 µM (≈ 6.26 µg/mL) | Activity (NIH3T3): Non-Toxic | MIC (Escherichia coli [16]): 8 µM | Ratio (Pseudomonas aeruginosa [17]): 2 - 4 | Activity (RAW264.7 [18]): Non-Toxic | Activity (RAW264.7 [19]): Active | MIC (Bacillus subtilis): 8 µM (≈ 12.5 µg/mL) | Ratio (Staphylococcus aureus [20]): 2 - 4 | Activity (RAW264.7 [21]): Active | Activity (RAW264.7 [22]): Active | MIC (Escherichia coli [23]): 8 µM | MIC (Staphylococcus aureus [24]): 2 µM | MIC (Staphylococcus aureus [25]): 8 µM (≈ 12.5 µg/mL) | MIC (Escherichia coli [26]): 8 µM | Ratio (Staphylococcus aureus [27]): 2 - 4 | MIC [28]: 4 µM (≈ 6.26 µg/mL) | Ratio (Pseudomonas aeruginosa [29]): 2 - 4 | MHC10 (Erythrocyte): 25 µM | MIC (Staphylococcus aureus [30]): 2 µM | fractional inhibitory concentration index (FICI) (Pseudomonas aeruginosa [31]): 0.375 | Ratio (Pseudomonas aeruginosa [32]): 2 - 4 | KSV (Lipid bilayer): 1.12 M⁻¹ | MIC (Escherichia coli [33]): 8 µM | MIC (Pseudomonas aeruginosa [34]): 16 µM (≈ 25 µg/mL) | MIC (Staphylococcus aureus [35]): 8 µM | MIC (Escherichia coli [36]): 8 µM (≈ 12.5 µg/mL) | Ratio (Staphylococcus aureus [37]): 2 - 8 | Ratio (Pseudomonas aeruginosa [38]): 2 - 4 | MBIC90 (Pseudomonas aeruginosa [39]): 16 µM | Ratio (Staphylococcus aureus [40]): 2 - 4
